Measurements published in PMC5529566, “The cryo-EM structure of gastric H^+,K^+-ATPase with bound BYK99, a high-affinity member of K^+-competitive, imidazo[1,2-a]pyridine inhibitors” (Scientific Reports, 2017).

Key:
[1] = target: T1, H^+,K^+-ATPase WT (Sus scrofa, UniProt P19156); experiment: K^+-competitive inhibition of H^+,K^+-ATPase activity, 96-well ATPase assay, wild-type; type: biochemical, pig
T1 construct: made in house; host or cells: HEK293S GnT1- cells (BacMam baculovirus transduction); permeabilised membrane fractions
T1 sequence (P19156 whole entry): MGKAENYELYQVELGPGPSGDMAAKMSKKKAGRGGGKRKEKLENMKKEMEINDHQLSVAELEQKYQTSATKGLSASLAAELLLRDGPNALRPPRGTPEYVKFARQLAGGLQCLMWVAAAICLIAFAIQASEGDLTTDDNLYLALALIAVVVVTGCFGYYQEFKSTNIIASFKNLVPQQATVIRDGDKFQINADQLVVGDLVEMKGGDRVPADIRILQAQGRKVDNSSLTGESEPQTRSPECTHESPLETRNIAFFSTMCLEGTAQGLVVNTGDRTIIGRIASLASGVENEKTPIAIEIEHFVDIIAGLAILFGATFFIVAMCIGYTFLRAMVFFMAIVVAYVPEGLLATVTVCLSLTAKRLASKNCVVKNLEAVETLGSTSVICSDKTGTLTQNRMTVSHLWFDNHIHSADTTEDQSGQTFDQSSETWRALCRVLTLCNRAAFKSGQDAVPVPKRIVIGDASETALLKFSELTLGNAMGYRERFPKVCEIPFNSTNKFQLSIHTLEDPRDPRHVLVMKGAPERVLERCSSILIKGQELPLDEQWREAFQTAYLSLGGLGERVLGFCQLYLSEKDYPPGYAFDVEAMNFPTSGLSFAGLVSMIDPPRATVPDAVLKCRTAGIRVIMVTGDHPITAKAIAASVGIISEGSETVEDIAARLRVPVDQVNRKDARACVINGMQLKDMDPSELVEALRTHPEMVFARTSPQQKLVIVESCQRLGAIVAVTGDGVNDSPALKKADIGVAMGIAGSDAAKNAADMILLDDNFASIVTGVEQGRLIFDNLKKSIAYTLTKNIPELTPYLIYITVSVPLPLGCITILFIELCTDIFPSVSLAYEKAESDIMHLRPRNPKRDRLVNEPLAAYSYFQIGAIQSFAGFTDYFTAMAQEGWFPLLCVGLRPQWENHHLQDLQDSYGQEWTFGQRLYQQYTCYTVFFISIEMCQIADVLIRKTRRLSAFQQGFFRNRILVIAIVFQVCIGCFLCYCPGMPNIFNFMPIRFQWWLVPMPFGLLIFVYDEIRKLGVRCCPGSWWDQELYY
T1 sequence (P18434 whole entry partner): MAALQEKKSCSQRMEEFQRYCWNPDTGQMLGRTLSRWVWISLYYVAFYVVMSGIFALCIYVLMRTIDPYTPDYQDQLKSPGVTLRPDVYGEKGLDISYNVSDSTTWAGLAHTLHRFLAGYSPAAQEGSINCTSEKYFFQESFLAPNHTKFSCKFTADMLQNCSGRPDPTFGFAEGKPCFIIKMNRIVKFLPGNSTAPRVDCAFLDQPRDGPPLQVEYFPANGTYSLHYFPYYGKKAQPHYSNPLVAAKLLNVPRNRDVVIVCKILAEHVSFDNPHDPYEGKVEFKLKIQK

[2] = target: H^+,K^+-ATPase D136F (Sus scrofa, UniProt P19156, D137F); experiment: ATPase assay, D136F mutant
[3] = target: H^+,K^+-ATPase Y799A (Sus scrofa, UniProt P19156, Y800A); experiment: ATPase assay, Y799A mutant
[4] = target: H^+,K^+-ATPase L139F (Sus scrofa, UniProt P19156, L140F); experiment: ATPase assay, L139F mutant
[5] = target: H^+,K^+-ATPase Y140F (Sus scrofa, UniProt P19156, Y141F); experiment: ATPase assay, Y140F mutant
[6] = target: H^+,K^+-ATPase D136I (Sus scrofa, UniProt P19156, D137I); experiment: ATPase assay, D136I mutant
[7] = target: H^+,K^+-ATPase L139I (Sus scrofa, UniProt P19156, L140I); experiment: ATPase assay, L139I mutant
[8] = target: H^+,K^+-ATPase D136A (Sus scrofa, UniProt P19156, D137A); experiment: ATPase assay, D136A mutant
Chain of H^+,K^+-ATPase D136A (P19156 whole entry D137A): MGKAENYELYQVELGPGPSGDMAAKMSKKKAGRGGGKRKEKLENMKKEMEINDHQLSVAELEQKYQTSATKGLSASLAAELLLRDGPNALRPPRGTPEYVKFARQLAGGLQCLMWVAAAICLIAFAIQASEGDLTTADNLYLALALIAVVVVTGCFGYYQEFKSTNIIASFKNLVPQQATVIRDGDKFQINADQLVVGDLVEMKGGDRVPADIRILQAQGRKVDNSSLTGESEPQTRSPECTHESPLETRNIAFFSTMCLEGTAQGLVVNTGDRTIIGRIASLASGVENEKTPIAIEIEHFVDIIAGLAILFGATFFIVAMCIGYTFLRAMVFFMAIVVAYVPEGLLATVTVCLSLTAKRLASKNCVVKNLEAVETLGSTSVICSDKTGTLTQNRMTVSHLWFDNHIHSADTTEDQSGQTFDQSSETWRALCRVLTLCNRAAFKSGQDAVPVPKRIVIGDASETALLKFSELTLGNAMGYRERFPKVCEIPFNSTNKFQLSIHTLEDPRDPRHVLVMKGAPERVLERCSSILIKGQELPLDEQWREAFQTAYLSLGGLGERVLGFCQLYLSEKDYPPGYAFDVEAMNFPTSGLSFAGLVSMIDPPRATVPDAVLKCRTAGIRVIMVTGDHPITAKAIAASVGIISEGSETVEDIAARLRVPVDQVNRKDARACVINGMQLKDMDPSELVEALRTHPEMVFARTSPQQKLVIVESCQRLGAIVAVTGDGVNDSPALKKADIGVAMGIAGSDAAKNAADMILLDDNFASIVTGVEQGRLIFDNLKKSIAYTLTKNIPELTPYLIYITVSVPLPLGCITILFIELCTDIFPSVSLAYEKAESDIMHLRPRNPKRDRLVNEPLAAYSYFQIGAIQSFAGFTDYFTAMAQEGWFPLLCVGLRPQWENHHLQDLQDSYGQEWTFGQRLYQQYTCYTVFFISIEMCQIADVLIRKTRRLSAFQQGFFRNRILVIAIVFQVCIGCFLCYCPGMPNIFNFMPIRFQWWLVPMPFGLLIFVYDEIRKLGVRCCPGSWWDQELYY
Chain of H^+,K^+-ATPase D136A (P18434 whole entry partner): as the sequence (P18434 whole entry partner) above

[9] = target: H^+,K^+-ATPase Y140L (Sus scrofa, UniProt P19156, Y141L); experiment: ATPase assay, Y140L mutant
[10] = target: H^+,K^+-ATPase D137I (Sus scrofa, UniProt P19156, D138I); experiment: ATPase assay, D137I mutant
[11] = target: H^+,K^+-ATPase Y799F (Sus scrofa, UniProt P19156, Y800F); experiment: ATPase assay, Y799F mutant
[12] = target: H^+,K^+-ATPase D136L (Sus scrofa, UniProt P19156, D137L); experiment: ATPase assay, D136L mutant
[13] = target: H^+,K^+-ATPase Y140A (Sus scrofa, UniProt P19156, Y141A); experiment: ATPase assay, Y140A mutant
[14] = target: H^+,K^+-ATPase L141I (Sus scrofa, UniProt P19156, L142I); experiment: ATPase assay, L141I mutant
[15] = target: H^+,K^+-ATPase D137L (Sus scrofa, UniProt P19156, D138L); experiment: ATPase assay, D137L mutant
[16] = target: H^+,K^+-ATPase N138L (Sus scrofa, UniProt P19156, N139L); experiment: ATPase assay, N138L mutant
[17] = target: H^+,K^+-ATPase A335G (Sus scrofa, UniProt P19156, A336G); experiment: ATPase assay, A335G mutant
Chain of H^+,K^+-ATPase A335G (P19156 whole entry A336G): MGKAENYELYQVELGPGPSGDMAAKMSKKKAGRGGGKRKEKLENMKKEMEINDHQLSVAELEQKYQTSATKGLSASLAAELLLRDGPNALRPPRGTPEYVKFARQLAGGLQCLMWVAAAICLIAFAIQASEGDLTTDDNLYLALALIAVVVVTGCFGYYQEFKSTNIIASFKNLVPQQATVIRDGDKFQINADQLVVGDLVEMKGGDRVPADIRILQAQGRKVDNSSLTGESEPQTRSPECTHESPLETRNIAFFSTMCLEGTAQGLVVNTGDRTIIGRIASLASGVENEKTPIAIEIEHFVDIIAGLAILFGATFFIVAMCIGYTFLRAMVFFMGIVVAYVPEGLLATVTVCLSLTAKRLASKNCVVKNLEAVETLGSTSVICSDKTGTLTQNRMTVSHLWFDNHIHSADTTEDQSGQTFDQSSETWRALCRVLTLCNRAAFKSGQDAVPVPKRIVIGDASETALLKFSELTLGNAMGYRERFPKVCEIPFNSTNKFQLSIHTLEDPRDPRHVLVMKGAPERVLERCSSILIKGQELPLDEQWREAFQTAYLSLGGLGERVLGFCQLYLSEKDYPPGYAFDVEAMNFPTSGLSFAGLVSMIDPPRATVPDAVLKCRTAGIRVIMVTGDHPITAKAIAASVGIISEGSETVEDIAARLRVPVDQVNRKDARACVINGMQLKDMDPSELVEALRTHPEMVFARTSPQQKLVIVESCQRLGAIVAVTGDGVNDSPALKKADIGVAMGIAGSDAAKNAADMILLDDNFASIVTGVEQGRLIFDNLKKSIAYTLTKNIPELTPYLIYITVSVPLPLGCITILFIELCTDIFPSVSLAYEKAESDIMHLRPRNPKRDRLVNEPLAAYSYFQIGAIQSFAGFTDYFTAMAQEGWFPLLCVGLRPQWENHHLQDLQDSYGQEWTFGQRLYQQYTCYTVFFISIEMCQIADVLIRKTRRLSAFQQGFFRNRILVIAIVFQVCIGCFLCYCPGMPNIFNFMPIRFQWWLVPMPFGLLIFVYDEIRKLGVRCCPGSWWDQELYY
Chain of H^+,K^+-ATPase A335G (P18434 whole entry partner): as the sequence (P18434 whole entry partner) above

[18] = target: H^+,K^+-ATPase Y140I (Sus scrofa, UniProt P19156, Y141I); experiment: ATPase assay, Y140I mutant
[19] = target: H^+,K^+-ATPase N138F (Sus scrofa, UniProt P19156, N139F); experiment: ATPase assay, N138F mutant
[20] = target: H^+,K^+-ATPase (Sus scrofa, UniProt P19156); experiment: Dose-dependent inhibition of H^+,K^+-ATPase activity in the presence of 10 mM KCl
[21] = target: H^+,K^+-ATPase N138I (Sus scrofa, UniProt P19156, N139I); experiment: ATPase assay, N138I mutant
Chain of H^+,K^+-ATPase N138I (P19156 whole entry N139I): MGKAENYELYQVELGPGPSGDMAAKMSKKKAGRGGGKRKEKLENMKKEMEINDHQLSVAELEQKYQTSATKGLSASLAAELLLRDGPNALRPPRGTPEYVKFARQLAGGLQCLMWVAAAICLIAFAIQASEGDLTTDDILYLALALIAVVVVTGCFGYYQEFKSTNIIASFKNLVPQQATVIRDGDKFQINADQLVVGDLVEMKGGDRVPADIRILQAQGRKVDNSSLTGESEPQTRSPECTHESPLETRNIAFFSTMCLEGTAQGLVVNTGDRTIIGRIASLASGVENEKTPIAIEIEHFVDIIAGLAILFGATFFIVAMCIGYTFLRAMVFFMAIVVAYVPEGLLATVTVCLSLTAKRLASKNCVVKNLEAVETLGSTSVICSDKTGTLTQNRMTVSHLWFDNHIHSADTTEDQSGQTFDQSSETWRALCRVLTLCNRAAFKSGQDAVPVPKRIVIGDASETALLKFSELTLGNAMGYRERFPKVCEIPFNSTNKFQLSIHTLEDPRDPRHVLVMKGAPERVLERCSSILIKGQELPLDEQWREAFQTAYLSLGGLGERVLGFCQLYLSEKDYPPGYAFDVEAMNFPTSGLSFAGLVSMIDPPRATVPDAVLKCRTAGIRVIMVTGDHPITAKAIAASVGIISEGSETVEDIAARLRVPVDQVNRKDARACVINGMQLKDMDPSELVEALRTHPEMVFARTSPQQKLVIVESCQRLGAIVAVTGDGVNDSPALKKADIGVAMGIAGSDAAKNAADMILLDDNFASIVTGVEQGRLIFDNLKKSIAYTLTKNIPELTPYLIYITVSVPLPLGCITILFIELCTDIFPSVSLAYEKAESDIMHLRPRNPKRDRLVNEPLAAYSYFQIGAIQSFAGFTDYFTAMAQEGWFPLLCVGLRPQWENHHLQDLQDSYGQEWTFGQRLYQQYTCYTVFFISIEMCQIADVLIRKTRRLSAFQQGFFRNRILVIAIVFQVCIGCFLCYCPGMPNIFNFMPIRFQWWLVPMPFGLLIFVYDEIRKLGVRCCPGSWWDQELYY
Chain of H^+,K^+-ATPase N138I (P18434 whole entry partner): as the sequence (P18434 whole entry partner) above

[22] = target: H^+,K^+-ATPase D137A (Sus scrofa, UniProt P19156, D138A); experiment: ATPase assay, D137A mutant
[23] = target: H^+,K^+-ATPase L139A (Sus scrofa, UniProt P19156, L140A); experiment: ATPase assay, L139A mutant
[24] = target: H^+,K^+-ATPase N138A (Sus scrofa, UniProt P19156, N139A); experiment: ATPase assay, N138A mutant
[25] = target: H^+,K^+-ATPase D137F (Sus scrofa, UniProt P19156, D138F); experiment: ATPase assay, D137F mutant

Cc1nc2c3c(ccn2c1C)[C@@H](O)[C@H](O)[C@@H](c1ccccc1)N3C [BYK73] was tested, and the “-fold increase in K i compared with wild-type” value (shortened to “-fold increase in K i”) ([1]; WT) was 1.0 fold, the “fold lower affinity compared with BYK99” value ([1]; WT enzyme) was 1000 fold and the Ki ([1]; WT, global fitting, mean ± SEM) was 4.9 ± 0.4 µM. The Ki [2] was 4 ± 0.2 µM, the “-fold increase in K i” value ([2]; D136F) was 0.8 fold and the Ki [3] was greater than 200 µM. For the same compound, the “-fold increase in K i” value ([3]; Y799A) was greater than 40 fold, the Ki [4] was 8.9 ± 0.7 µM and the “-fold increase in K i” value ([4]; L139F) was 1.8 fold. For the same compound, the Ki [5] was 7.6 ± 0.5 µM, the “-fold increase in K i” value ([5]; Y140F) was 1.6 fold and the Ki [6] was 6.7 ± 0.4 µM. The “-fold increase in K i” value ([6]; D136I) was 1.4 fold, the Ki [7] was 1.7 ± 0.2 µM and the “-fold increase in K i” value ([7]; L139I) was 0.3 fold. The Ki [8] was 9 ± 0.5 µM, the “-fold increase in K i” value ([8]; D136A) was 1.8 fold and the Ki [9] was 6.5 ± 0.6 µM. For the same compound, the “-fold increase in K i” value ([9]; Y140L) was 1.3 fold, the Ki [10] was 32 ± 5 µM and the “-fold increase in K i” value ([10]; D137I) was 6.5 fold. For the same compound, the Ki [11] was 21 ± 2.7 µM, the “-fold increase in K i” value ([11]; Y799F) was 4.3 fold and the Ki [12] was 3.2 ± 0.2 µM. For the same compound, the “-fold increase in K i” value ([12]; D136L) was 0.7 fold, the Ki [13] was 14 ± 2 µM and the “-fold increase in K i” value ([13]; Y140A) was 2.9 fold. The Ki [14] was 3.9 ± 0.8 µM, the “-fold increase in K i” value ([14]; L141I) was 0.8 fold and the Ki [15] was greater than 100 µM. The “-fold increase in K i” value ([15]; D137L) was greater than 20 fold, the Ki [16] was greater than 100 µM and the “-fold increase in K i” value ([16]; N138L) was greater than 20 fold. The Ki [17] was 0.078 ± 0.006 µM, the “-fold increase in K i” value ([17]; A335G) was 0.016 fold and the fold increased affinity ([17]; A335G vs WT) was “more than 60 fold”. The Ki [18] was 4 ± 0.5 µM, the “-fold increase in K i” value ([18]; Y140I) was 0.8 fold and the Ki [19] was greater than 100 µM. For the same compound, the “-fold increase in K i” value ([19]; N138F) was greater than 20 fold, the IC50 [20] was 29 µM and the Ki [21] was 62 ± 17 µM. For the same compound, the “-fold increase in K i” value ([21]; N138I) was 13 fold, the Ki [22] was 120 ± 30 µM and the “-fold increase in K i” value ([22]; D137A) was 25 fold. The Ki [23] was 5.8 ± 0.6 µM, the “-fold increase in K i” value ([23]; L139A) was 1.2 fold and the Ki [24] was 6.6 ± 0.8 µM. For the same compound, the “-fold increase in K i” value ([24]; N138A) was 1.3 fold, the Ki [25] was 110 ± 10 µM and the “-fold increase in K i” value ([25]; D137F) was 22 fold.
